Values quoted from earlier work as cited in patent US20030198685A1 (priority 2002, published 2003).
Where two headings read alike, the source gives them in different places.

How the values were obtained:
[1] = not given; remark: listed apart in the source
[2] = female rats, constant infusion
[3] = tested on: androgen receptor; settings: seminal vesicle; parent versus 5-alpha-reduced metabolite
[4] = 300 mg/wk for six weeks
[5] = Caucasian group of hypogonadal men
[6] = tested on: prostate and seminal vesicle weights; levator ani muscles
[7] = not given; remark: listed apart in the source
[8] = patients on dialysis
[9] = nandrolone use
[10] = pharmacological doses, HIV-infected men
[11] = after supplementation

**Q.** Which plasma testosterone (50 mg dose of DHEA) does the source give for C[C@]12CC[C@H](O)CC1=CC[C@@H]1[C@@H]2CC[C@]2(C)C(=O)CC[C@@H]12 [DHEA, dehydro-epiandrosterone] here?
**A.** Its plasma testosterone is “levels similar to those observed in young women”.

**Q.** What about the “increase of plasma delta 4-androstenedione” value (50 mg or 200 mg DHEA) of the same compound?
**A.** Its value is “significant and dose dependent”.

**Q.** What about the “plasma estrogens, particularly estradiol” value (50 mg or 200 mg DHEA) of the same compound?
**A.** The value was “significant and dose dependent increase”.

**Q.** What about the plasma testosterone (200 mg dose of DHEA) of the same compound?
**A.** Its plasma testosterone is “slightly below the levels observed in normal men”.

**Q.** What about the “increase of plasma dihydrotestosterone levels” value (both doses of DHEA) of the same compound?
**A.** The value was “small”.

**Q.** With C[C@]12CCC(=O)C=C1CC[C@@H]1[C@@H]2CC[C@]2(C)C(=O)CC[C@@H]12 [4-androstenedione] as the compound, how does the serum testosterone ([1]; supplementation) read?
**A.** Its serum testosterone is “elevations”.

**Q.** Which “proportion of protein in the body composition” value [2] does the source give for C[C@]12CC[C@H]3[C@@H](CCC4=CC(=O)CC[C@@]43C)[C@@H]1CC[C@@H]2O [testosterone] here?
**A.** The value was “increased”.

**Q.** And the “change of affinity to the androgen receptor on 5-alpha-reduction” value [3]?
**A.** Its value is “increasing by seven- to eight-fold”.

**Q.** For CCCCCCC(=O)O[C@H]1CC[C@H]2[C@@H]3CCC4=CC(=O)CC[C@]4(C)[C@H]3CC[C@]12C [TE, testosterone enanthate], which “body circumferences with significant increases (of fifteen)” value [4] is on record?
**A.** The value was “shoulders”.

**Q.** What about the “sexual interest and activity, spontaneous erection” value [5] of the same compound?
**A.** The value was “significant increases”.

**Q.** Which results are given for C[C@@H]1CC2=CC(=O)CC[C@@H]2[C@H]2CC[C@]3(C)[C@@H](O)CC[C@H]3[C@@H]21 [MENT, 7α-methyl-19-nor-testosterone]?
**A.** androgenic potency relative to testosterone ([6]; measured by prostate and seminal vesicle weights): four- to five-times; anabolic potency relative to testosterone ([6]; measured in the levator ani muscles): ten-times; sexual interest and activity, spontaneous erection [5]: significant increases

**Q.** For C[C@]12CC[C@H]3[C@@H](CCC4=CC(=O)CC[C@@H]43)[C@@H]1CC[C@@H]2O [nandrolone, 19-nor-testosterone], which “decrease in HDL-cholesterol” value ([7]; body builders) is on record?
**A.** Its value is 25-27%.

**Q.** And the lean body mass ([7]; body builders ingesting nandrolone)?
**A.** The lean body mass was “Superior increases”.

**Q.** And the energy expenditure [2]?
**A.** Its energy expenditure is “increased”.

**Q.** And the “lean body mass compared with placebo” value [8]?
**A.** The value was “increased significantly”.

**Q.** And the effect on sperm [9]?
**A.** The effect on sperm was “azoospermia”.

**Q.** With CCCCCCCCCC(=O)O[C@H]1CC[C@H]2[C@@H]3CCC4=CC(=O)CC[C@@H]4[C@H]3CC[C@]12C [nandrolone decanoate, 19-nor-testosterone decanoate] as the compound, how does the “total weight, lean body mass, body cell mass, muscle size and strength” value [10] read?
**A.** Its value is “significant gains”.

**Q.** And the “body circumferences with significant increases (of fifteen)” value [4]?
**A.** Its value is “shoulders and chest”.

**Q.** With C[C@]12CC[C@H]3[C@@H](CC=C4C[C@@H](O)CC[C@@]43C)[C@@H]1CC[C@@H]2O [5-androstenediol] as the compound, how does the “proportion of protein in the body composition” value [2] read?
**A.** The value was “increased”.

**Q.** For C[C@]12CC[C@H]3[C@@H](CCC4=C[C@@H](O)CC[C@@]43C)[C@@H]1CC[C@@H]2O [4-androstenediol], which “urine testosterone concentration relative to 4-androstenedione” value [11] is on record?
**A.** The value was 10 fold.

**Q.** What about the “human serum testosterone levels” value ([1]; human) of the same compound?
**A.** Its value is “elevations”.
